Laboratory results published in patent publication US11229614B2, “Supramolecular hydrogel applications to the carotid bodies to treat hypertension and sleep apnea in obesity” (THE JOHNS HOPKINS UNIVERSITY, priority 2017, dated 2022).
Where two headings read alike, the source gives them in different places.

Key:
[1] = Maximum solubility at pH 7.4; type: physicochemical
[2] = system: C57BL/6J mice; type: in vivo
Procedure: Blood pressure telemetry (FIG. 2) and sleep studies in mice. […] Then blood pressure was measured at baseline (Day 0). The leptin osmotic pump was implanted SC to deliver 120 μg/day of the hormone, which increased leptin levels to 40-50 ng/ml which corresponded to plasma leptin levels in severely obese mice. Blood pressure measured after 2 days of leptin infusion (Day 2) followed by removal of the osmotic pump. On Day 5, the carotid artery bifurcation was exposed and co-assembled FTY720-PA filamentous nanostructures were applied bilaterally (5 μg/side). […] The leptin osmotic pump was reinserted on Day 9 and blood pressure was measured after two days of leptin infusion on Day 11. The pump was removed on Day 12 and reinserted on Day 20 followed by blood pressure measurement on Day 22. […] Leptin increased mean arteria blood pressure by 13±6 mm Hg and this effect was abolished by FTY720. […] Allowing 10% attrition rate, it will require 28 male (14 DIO and 14 lean) and 28 female C57BL/6J mice (14 DIO and 14 lean).

[3] = mice; cited from earlier work
[4] = humans; cited from earlier work

Compound | solubility [1] [µM] | leptin-induced hypertension ([2]; FTY720 in Matrigel at 0.3 mg/kg/day applied to CB (FIG. 2)) | leptin-induced hypertension ([2]; administered to CB locally) | effect on leptin-induced increase of mean arterial blood pressure ([2]; mouse, in vivo) | half-life [3] [h] | half-life [4] [h] | increase of mean arterial blood pressure ([2]; leptin infusion) [mm Hg]
CCCCCCCCc1ccc(CCC(N)(CO)CO)cc1.Cl [FTY720, 2-Amino-2-[2-(4-octyl-phenyl)-ethyl]-propane-1,3-diol hydrochloride] | 81 | abolished leptin-induced hypertension | abolished leptin-induced hypertension | abolished | 9 | 170 | –
Leptin: hormone delivered by SC osmotic pump to induce hypertension | – | – | – | – | – | – | 13±6
